Source: patent US5049494A, “Conversion of mannose to fructose” (Allied-Signal Inc., priority 1989, dated 1991)

System: immobilized mannose isomerase
Settings: 0.4 g immobilized enzyme, 40° C., 5 ml of 0.1M sugar solution, after 18 hours
Experimental: Mannose isomerase activity was typically determined at 40° C. using a feedstock containing 0.1M D-mannose and 0.2M Tris buffer at pH 6.5. Mannose isomerase activity was determined in extracts primarily by measuring mannose-dependent formation of fructose according to the method described by J. H. Roe, J Biol. Chem. 107: 15-19 (1934). Assay mixtures (1 ml) containing 200 mM Tris buffer, pH 7, 100 mM D-mannose, and appropriately diluted cell extract were incubated at 40° C. After 15 min., 0.2 ml of each reaction mixture was transferred to a separate tube and 0.2 ml of ethanol containing 0.1% (wt/vol) resorcinol and 0.6 ml of 10N HCl was added. The tubes were incubated at 80° C. for 8 min, and then placed in ice water to stop the reaction. The absorbance at 484 nm was determined and compared to a standard curve relating absorbance to fructose concentration. An absorbance of 0.1 was equivalent to 150 nmoles of fructose per ml of assay mixture. The conversion of mannose to fructose (as well as any reactions with other sugars) was also determined using HPLC and known standards.
A similar set of experiments was used to test the behavior of the enzyme in the presence of other sugar substrates. For such experiments a mixed sugar feed was prepared approximating the ratios of hemicellulose-derived sugars identified in sulfite waste liquor streams and containing (in grams per liter of 0.2M Tris buffer at pH 7) galactose (15.9), glucose (15.9), mannose (40.3), arabinose (8.0), and xylose (15.2),.

SMILES	loss of sugar
O=C[C@H](O)[C@@H](O)[C@@H](O)[C@H](O)CO [D-galactose]	no detectable loss
O=C[C@@H](O)[C@@H](O)[C@H](O)CO [D-lyxose]	no detectable loss
O=C[C@H](O)[C@@H](O)[C@H](O)CO [D-xylose]	no detectable loss
O=C(CO)[C@@H](O)[C@H](O)CO [D-xylulose]	no detectable loss
O=C[C@H](O)[C@@H](O)[C@@H](O)CO [L-arabinose]	no detectable loss
O=C[C@H](O)[C@H](O)[C@@H](O)[C@@H](O)CO [L-mannose]	no detectable loss
C[C@H](O)[C@H](O)[C@@H](O)[C@@H](O)C=O [L-rhamnose]	no detectable loss
